# In patent US12011506B2, “Combination and uses and treatments thereof” (priority 2017, dated 2024):
# Tests used:
# [1] = Solubilities of rilpivirine hydrochloride in various aqueous media; type: physicochemical
# [2] = Pre-dose concentrations of DTG and RPV at Weeks 4, 24 and 48 or withdrawal in participants switching to DTG + RPV; type: in vivo, human
# Method: (§1) First set of participants (DTG 50 mg) received DIG 50 mg+RPV 25 mg together once daily, with a meal, in an open-label fashion up to Week 52 during early switch phase. Second set of participants (RPV 25 mg) also received DTG 50 mg+RPV 25 mg together once daily, with a meal, in an open-label fashion up to Week 52 during early switch phase.
# (§2) First set of participants (DTG 50 mg) received DTG 50 mg+RPV 25 mg together once daily, with a meal, in an open-label fashion up to Week 52 during early switch phase. Second set of participants (RPV 25 mg) also received DTG 50 mg+RPV 25 mg together once daily, with a meal, in an open-label fashion up to Week 52 during early switch phase.
# [3] = Pre-dose concentrations of DTG and RPV at Weeks 2, 4 and 8 in the first 20 participants who switch from EFV or NVP to DTG + RPV; type: in vivo, human
# Method: as §1, §2
# [4] = human, in vivo
# [5] = Drug interaction trials: effect of rilpivirine on pharmacokinetics of coadministered drugs; conditions: No Effect = 1.00
# [6] = Drug interaction trials: effect of dolutegravir on pharmacokinetics of coadministered drugs
# From the text: (§3) These recommendations are based on either drug interaction trials of individual components or predicted interactions due to the expected magnitude of interaction and potential for serious adverse events or loss of efficacy.
# [7] = Solubilities of non-micronized dolutegravir sodium in various solvents at 25° C.; type: physicochemical
# [8] = Drug interaction trials: effect of coadministered drugs on pharmacokinetics of dolutegravir; type: in vivo, human
# From the text: as §3
# [9] = Established and other potentially significant drug interactions with JULUCA (effect on concentration); type: in vivo, human; conditions: based on drug interaction trials or predicted interactions
# From the text: as §3
# [10] = human, in vivo; remark: listed apart in the source
# [11] = coadministered drug 2 h after dolutegravir 50 mg single dose
# [12] = simultaneous administration (fasted), dolutegravir 50 mg single dose
# [13] = simultaneous administration (fed), dolutegravir 50 mg single dose
# [14] = metformin 500 mg twice daily, dolutegravir 50 mg once daily
# [15] = metformin 500 mg twice daily, dolutegravir 50 mg twice daily
structure (smiles),measurement,setting,value
"Cc1cc(/C=C/C#N)cc(C)c1Nc1ccnc(Nc2ccc(C#N)cc2)n1.Cl [rilpivirine hydrochloride, 4-[[4-[[4-[(E)-2-cyanoethenyl]-2,6-dimethylphenyl]amino]-2-pyrimidinyl]amino]benzonitrile hydrochloride]",Descriptor (solubility),"[1]; 0.01N HCl, pH 2.0","Practically insoluble (Practically insoluble or Insoluble: Parts of solvent required for 1 part of solute: greater than or equal to 10,000)"
same,Solubility,"[1]; 0.01N HCl, pH 2.0, 20° C.",0.003 g/100 mL
same,Descriptor (solubility),"[1]; 0.1N HCl, pH 1.1","Practically insoluble (Practically insoluble or Insoluble: Parts of solvent required for 1 part of solute: greater than or equal to 10,000)"
same,Solubility,"[1]; 0.1N HCl, pH 1.1, 20° C.",<0.001 g/100 mL
same,Descriptor (solubility),"[1]; 0.1N NaOH, pH 12.9","Practically insoluble (Practically insoluble or Insoluble: Parts of solvent required for 1 part of solute: greater than or equal to 10,000)"
same,Solubility,"[1]; 0.1N NaOH, pH 12.9, 20° C.",<0.001 g/100 mL
same,Descriptor (solubility),"[1]; Borate-KCl, pH 8.9","Practically insoluble (Practically insoluble or Insoluble: Parts of solvent required for 1 part of solute: greater than or equal to 10,000)"
same,Solubility,"[1]; Borate-KCl, pH 8.9, 20° C.",<0.001 g/100 mL
same,Descriptor (solubility),"[1]; Citrate-HCl, pH 2.0","Practically insoluble (Practically insoluble or Insoluble: Parts of solvent required for 1 part of solute: greater than or equal to 10,000)"
same,Solubility,"[1]; Citrate-HCl, pH 2.0, 20° C.",<0.001 g/100 mL
same,Descriptor (solubility),"[1]; Citrate-NaOH, pH 5.0","Practically insoluble (Practically insoluble or Insoluble: Parts of solvent required for 1 part of solute: greater than or equal to 10,000)"
same,Solubility,"[1]; Citrate-NaOH, pH 5.0, 20° C.",<0.001 g/100 mL
same,Descriptor (solubility),"[1]; Phosphate Buffer, pH 6.9","Practically insoluble (Practically insoluble or Insoluble: Parts of solvent required for 1 part of solute: greater than or equal to 10,000)"
same,Solubility,"[1]; Phosphate Buffer, pH 6.9, 20° C.",<0.001 g/100 mL
same,Descriptor (solubility),"[1]; Phosphate-NaOH, pH 11.9","Practically insoluble (Practically insoluble or Insoluble: Parts of solvent required for 1 part of solute: greater than or equal to 10,000)"
same,Solubility,"[1]; Phosphate-NaOH, pH 11.9, 20° C.",<0.001 g/100 mL
same,Descriptor (solubility),"[1]; Water, solution pH 2.2","Practically insoluble (Practically insoluble or Insoluble: Parts of solvent required for 1 part of solute: greater than or equal to 10,000)"
same,Solubility,"[1]; Water, solution pH 2.2, 20° C.",0.001 g/100 mL
same,Descriptor (solubility),[1]; aqueous media (Table 16),practically insoluble
same,"Pre-dose concentration, Mean ± Standard Deviation","[2]; Example 3 (Table 10), Week 4",92.046 ± 138.2880 µg/L
same,"Pre-dose concentration, Mean ± Standard Deviation","[2]; Example 3 (Table 10), Week 24",87.875 ± 39.1412 µg/L
same,"Pre-dose concentration, Mean ± Standard Deviation","[2]; Example 3 (Table 10), Week 48",95.405 ± 48.2978 µg/L
same,"Pre-dose concentration, Mean ± Standard Deviation","[2]; Example 5 (Table 13), Week 4",79.504 ± 38.2305 µg/L
same,"Pre-dose concentration, Mean ± Standard Deviation","[2]; Example 5 (Table 13), Week 24",90.207 ± 46.3022 µg/L
same,"Pre-dose concentration, Mean ± Standard Deviation","[2]; Example 5 (Table 13), Week 48",91.799 ± 47.1371 µg/L
same,"Pre-dose concentration, Mean ± Standard Deviation","[3]; Example 3 (Table 10), Week 2",65.360 ± 31.2965 µg/L
same,"Pre-dose concentration, Mean ± Standard Deviation","[3]; Example 3 (Table 10), Week 4",67.374 ± 27.5663 µg/L
same,"Pre-dose concentration, Mean ± Standard Deviation","[3]; Example 3 (Table 10), Week 8",77.416 ± 37.7129 µg/L
same,"Pre-dose concentration, Mean ± Standard Deviation","[3]; Example 5 (Table 13), Week 2",57.342 ± 29.5436 µg/L
same,"Pre-dose concentration, Mean ± Standard Deviation","[3]; Example 5 (Table 13), Week 4",78.338 ± 31.4825 µg/L
same,"Pre-dose concentration, Mean ± Standard Deviation","[3]; Example 5 (Table 13), Week 8",79.652 ± 40.7546 µg/L
C#C[C@]1(O)CC[C@H]2[C@@H]3CCC4=CC(=O)CC[C@@H]4[C@H]3CC[C@@]21C [Norethindrone],"AUC of coadministered drug, geometric mean ratio with/without EDURANT",[4],0.89
same,"Cmax of coadministered drug, geometric mean ratio with/without EDURANT",[4],0.94
same,"Cmin of coadministered drug, geometric mean ratio with/without EDURANT",[5],0.99
C#C[C@]1(O)CC[C@H]2[C@@H]3CCC4=CC(=NO)CC[C@@H]4[C@H]3CC[C@@]21CC (mixture of isomers) [Norelgestromin],"Cmax of coadministered drug, geometric mean ratio with/without dolutegravir",[6]; No Effect = 1.00,0.89
same,"Cτ or C24 of coadministered drug, geometric mean ratio with/without dolutegravir",[6]; No Effect = 1.00,0.93
"C[C@@H]1CCO[C@H]2Cn3cc(C(=O)NCc4ccc(F)cc4F)c(=O)c([O-])c3C(=O)N12.[Na+] [dolutegravir sodium, sodium (4R,12aS)-9-{[(2,4-difluorophenyl)methyl]carbamoyl}-4-methyl-6,8-dioxo-3,4,6,8,12,12a-hexahydro-2H-pyrido[1′,2′:4,5]pyrazino[2,1-b][1,3]oxazin-7-olate]",Descriptor (solubility),"[7]; FaSSIF, pH 6.5, 25° C.",Very slightly soluble
same,Descriptor (solubility),"[7]; FaSSIF, pH 6.5, 25° C., listed as Non-micronized dolutegravir sodium",very slightly soluble
same,Descriptor (solubility),"[7]; FeSSIF, pH 5.0, 25° C.",Very slightly soluble
same,Descriptor (solubility),"[7]; FeSSIF, pH 5.0, 25° C., listed as Non-micronized dolutegravir sodium",very slightly soluble
same,Descriptor (solubility),"[7]; SGF, pH 1.2, 25° C.",Practically insoluble
same,Descriptor (solubility),"[7]; SGF, pH 1.2, 25° C., listed as Non-micronized dolutegravir sodium",practically insoluble
same,Descriptor (solubility),"[7]; Water, solution pH 10.1, 25° C.",Slightly soluble
same,Descriptor (solubility),"[7]; Water, solution pH 10.1, 25° C., listed as Dolutegravir sodium",slightly soluble
same,solubility at 8 h,"[7]; simulated gastric fluid, thermodynamic from solid, SGF, pH 1.2, 25° C., 8 hours",21 µg/mL
same,solubility at 4 h,"[7]; thermodynamic from solid, FaSSIF, pH 6.5, 25° C., 4 hours",239 µg/mL
same,solubility at 4 h,"[7]; thermodynamic from solid, FeSSIF, pH 5.0, 25° C., 4 hours",170 µg/mL
same,solubility at 4 h,"[7]; thermodynamic from solid, Water, solution pH 10.1, 25° C., equilibrium after 4 hours",3180 µg/mL
same,"Pre-dose concentration, Mean ± Standard Deviation","[2]; Example 3 (Table 10), Week 4",1581.06 ± 1146.860 µg/L
same,"Pre-dose concentration, Mean ± Standard Deviation","[2]; Example 3 (Table 10), Week 24",1835.68 ± 1120.539 µg/L
same,"Pre-dose concentration, Mean ± Standard Deviation","[2]; Example 3 (Table 10), Week 48",1915.11 ± 1304.238 µg/L
same,"Pre-dose concentration, Mean ± Standard Deviation","[2]; Example 5 (Table 13), Week 4",1578.88 ± 1170.967 µg/L
same,"Pre-dose concentration, Mean ± Standard Deviation","[2]; Example 5 (Table 13), Week 24",1447.23 ± 917.677 µg/L
same,"Pre-dose concentration, Mean ± Standard Deviation","[2]; Example 5 (Table 13), Week 48",1384.36 ± 889.829 µg/L
same,"Pre-dose concentration, Mean ± Standard Deviation","[3]; Example 3 (Table 10), Week 2",821.25 ± 574.607 µg/L
same,"Pre-dose concentration, Mean ± Standard Deviation","[3]; Example 3 (Table 10), Week 4",994.00 ± 581.201 µg/L
same,"Pre-dose concentration, Mean ± Standard Deviation","[3]; Example 3 (Table 10), Week 8",1561.34 ± 1096.381 µg/L
same,"Pre-dose concentration, Mean ± Standard Deviation","[3]; Example 5 (Table 13), Week 2",834.58 ± 639.622 µg/L
same,"Pre-dose concentration, Mean ± Standard Deviation","[3]; Example 5 (Table 13), Week 4",1218.23 ± 842.703 µg/L
same,"Pre-dose concentration, Mean ± Standard Deviation","[3]; Example 5 (Table 13), Week 8",1472.50 ± 818.774 µg/L
O=C([O-])[O-].[Ca+2] [Calcium carbonate],"Dolutegravir AUC, geometric mean ratio with/without coadministered drug",[8]; [11],0.94
same,"Dolutegravir Cmax, geometric mean ratio with/without coadministered drug",[8]; [11],1.00
same,"Dolutegravir Cτ or C24, geometric mean ratio with/without coadministered drug",[8]; [11],0.90
same,"Dolutegravir AUC, geometric mean ratio with/without coadministered drug",[8]; [12],0.61
same,"Dolutegravir Cmax, geometric mean ratio with/without coadministered drug",[8]; [12],0.63
same,"Dolutegravir Cτ or C24, geometric mean ratio with/without coadministered drug",[8]; [12],0.61
same,"Dolutegravir AUC, geometric mean ratio with/without coadministered drug",[8]; [13],1.09
same,"Dolutegravir Cmax, geometric mean ratio with/without coadministered drug",[8]; [13],1.07
same,"Dolutegravir Cτ or C24, geometric mean ratio with/without coadministered drug",[8]; [13],1.08
CN(C)C(=N)N=C(N)N [Metformin],Effect on Concentration of the concomitant drug,[9],↑Metformin
same,"AUC of coadministered drug, geometric mean ratio with/without EDURANT",[4],0.97
same,"Cmax of coadministered drug, geometric mean ratio with/without EDURANT",[4],1.02
same,"AUC of coadministered drug, geometric mean ratio with/without dolutegravir",[6]; [14],1.79
same,"Cmax of coadministered drug, geometric mean ratio with/without dolutegravir",[6]; [14],1.66
same,"AUC of coadministered drug, geometric mean ratio with/without dolutegravir",[6]; [15],2.45
same,"Cmax of coadministered drug, geometric mean ratio with/without dolutegravir",[6]; [15],2.11
COC(=O)N[C@H](C(=O)N1CCC[C@H]1c1nc(-c2ccc(-c3ccc(-c4c[nH]c([C@@H]5CCCN5C(=O)[C@@H](NC(=O)OC)C(C)C)n4)cc3)cc2)c[nH]1)C(C)C [Daclatasvir],"Cmax of coadministered drug, geometric mean ratio with/without dolutegravir",[6]; No Effect = 1.00,1.03
same,"Cτ or C24 of coadministered drug, geometric mean ratio with/without dolutegravir",[6]; No Effect = 1.00,1.06
O=C([O-])/C=C/C(=O)[O-].[Fe+2] [Ferrous fumarate],"Dolutegravir AUC, geometric mean ratio with/without coadministered drug",[8]; [11],0.95
same,"Dolutegravir Cmax, geometric mean ratio with/without coadministered drug",[8]; [11],0.99
same,"Dolutegravir Cτ or C24, geometric mean ratio with/without coadministered drug",[8]; [11],0.92
same,"Dolutegravir AUC, geometric mean ratio with/without coadministered drug",[8]; [12],0.46
same,"Dolutegravir Cmax, geometric mean ratio with/without coadministered drug",[8]; [12],0.43
same,"Dolutegravir Cτ or C24, geometric mean ratio with/without coadministered drug",[8]; [12],0.44
same,"Dolutegravir AUC, geometric mean ratio with/without coadministered drug",[8]; [13],0.98
same,"Dolutegravir Cmax, geometric mean ratio with/without coadministered drug",[8]; [13],1.03
same,"Dolutegravir Cτ or C24, geometric mean ratio with/without coadministered drug",[8]; [13],1.00
CCCc1nn(C)c2c(=O)[nH]c(-c3cc(S(=O)(=O)N4CCN(C)CC4)ccc3OCC)nc12 [Sildenafil],"AUC of coadministered drug, geometric mean ratio with/without EDURANT",[4],0.97
same,"Cmax of coadministered drug, geometric mean ratio with/without EDURANT",[4],0.93
same,"Rilpivirine AUC, geometric mean ratio with/without coadministered drug",[10],0.98
same,"Rilpivirine Cmax, geometric mean ratio with/without coadministered drug",[10],0.92
same,"Rilpivirine Cmin, geometric mean ratio with/without coadministered drug",[10],1.04
CC(=O)Nc1ccc(O)cc1 [Acetaminophen],"AUC of coadministered drug, geometric mean ratio with/without EDURANT",[4],0.91
same,"Cmax of coadministered drug, geometric mean ratio with/without EDURANT",[4],0.97
same,"Rilpivirine AUC, geometric mean ratio with/without coadministered drug",[10],1.16
same,"Rilpivirine Cmax, geometric mean ratio with/without coadministered drug",[10],1.09
same,"Rilpivirine Cmin, geometric mean ratio with/without coadministered drug",[10],1.26
C#C[C@]1(O)CC[C@H]2[C@@H]3CCc4cc(O)ccc4[C@H]3CC[C@@]21C [Ethinyl estradiol],"AUC of coadministered drug, geometric mean ratio with/without EDURANT",[4],1.14
same,"Cmax of coadministered drug, geometric mean ratio with/without EDURANT",[4],1.17
same,"Cmin of coadministered drug, geometric mean ratio with/without EDURANT",[5],1.09
same,"Cmax of coadministered drug, geometric mean ratio with/without dolutegravir",[6]; No Effect = 1.00,0.99
same,"Cτ or C24 of coadministered drug, geometric mean ratio with/without dolutegravir",[6]; No Effect = 1.00,1.02
